Values of other authors as cited in PubChem BioAssay AID1259409 (Chemical Carcinogenesis Research Information System (CCRIS), 2018).

Tested on: rodent chemically induced tumor inhibition, incidence and multiplicity
Assay: CCRIS tumor inhibitor studies

In the case of `C=CCSC`, the “tumour outcome (control, treated, inhibition, significance)” value (Carcinogen: 7,12-DIMETHYLBENZ[A]ANTHRACENE, 57-97-6, Dose [Inhibitor]: 0, 1.8 MMOL/KG BW IN CORN OIL 96, 48 AND 24 HR PRIOR TO CARCINOGEN TREATMENT (STUDY DURATION: 25 WK), Route [Inhibitor]: GAVAGE, Species: RAT, Strain/Sex: SPRAGUE-DAWLEY/FEMALE, Target Tissue: Type of Lesion: MAMMARY GLAND: ADENOCARCINOMA, Dose [Carcinogen]: 10 MG ONCE, Promoter: NONE USED) is listed as 92%, 72%, 22%, p<0.05.
For `CC(=O)[C@H]1C[C@@H]2C[C@H]1[C@@H](N=C=S)C2`, the “tumour outcome (control, treated, inhibition, significance)” value (Carcinogen: 7,12-DIMETHYLBENZ[A]ANTHRACENE, 57-97-6, Dose [Inhibitor]: 0, 100 UMOL/D IN 0.5 ML EMULPHOR EL-620 FOR 5 CONSECUTIVE DAYS BEGINNING AT 47 D OF AGE (STUDY DURATION: 155 D), Route [Inhibitor]: GAVAGE, Species: RAT, Strain/Sex: SPRAGUE-DAWLEY/FEMALE, Target Tissue: Type of Lesion: MAMMARY GLAND: TUMOR, Dose [Carcinogen]: 8 MG IN 1 ML SESAME OIL ONCE AT 50 D OF AGE, Promoter: NONE USED) is given as 17/25 (68%), 9/19 (47%), 31%, not significant.
In the case of `CC(/C=C/C=C(\C)C(=O)O)=C\C=C\C=C(C)\C=C\C=C(/C)C(=O)O`, the “tumour outcome (control, treated, inhibition, significance)” value (Carcinogen: BENZO[A]PYRENE, 50-32-8, Dose [Inhibitor]: 0, 0.2 UMOL IN 0.2 ML ACETONE 2/WK FOR 20 WK ADMINISTERED CONCURRENTLY WITH PROMOTER (STUDY DURATION: 21 WK), Route [Inhibitor]: DERMAL, Species: MOUSE, Strain/Sex: CD-1/FEMALE, Target Tissue: Type of Lesion: SKIN: PAPILLOMA, Dose [Carcinogen]: 20 NMOL IN 0.2 ML ACETONE 1/WK FOR 10 WK, Promoter: 12-O-TETRADECANOYLPHORBOL-13-ACETATE, 16561-29-8) is given as 100%, 53%, 47%, not calculated and the “tumour outcome (control, treated, inhibition, significance)” value (Carcinogen: BENZO[A]PYRENE, 50-32-8, Dose [Inhibitor]: 0, 1 UMOL IN 0.2 ML ACETONE 2/WK FOR 20 WK ADMINISTERED CONCURRENTLY WITH PROMOTER (STUDY DURATION: 21 WK), Route [Inhibitor]: DERMAL, Species: MOUSE, Strain/Sex: CD-1/FEMALE, Target Tissue: Type of Lesion: SKIN: PAPILLOMA, Dose [Carcinogen]: 20 NMOL IN 0.2 ML ACETONE 1/WK FOR 10 WK, Promoter: 12-O-TETRADECANOYLPHORBOL-13-ACETATE, 16561-29-8) is given as 100%, 28%, 72%, not calculated.
For `O=C(/C=C/c1ccccc1)c1ccccc1O`, the “tumour outcome (control, treated, inhibition, significance)” value (Carcinogen: 4-NITROQUINOLINE-1-OXIDE, 56-57-5, Dose [Inhibitor]: 0, 500 PPM IN DIET FOR 10 WK BEGINNING 1 WK PRIOR TO CARCINOGEN DOSE (STUDY DURATION: 32 WK), Route [Inhibitor]: ORAL, Species: RAT, Strain/Sex: F344/MALE, Target Tissue: Type of Lesion: TONGUE: CARCINOMA, Dose [Carcinogen]: 20 PPM IN DRINKING WATER FOR 8 WK, Promoter: NONE USED) is listed as 9/15 (60%), 2/16 (13%), 78%, p<0.05, the “tumour outcome (control, treated, inhibition, significance)” value (Carcinogen: 4-NITROQUINOLINE-1-OXIDE, 56-57-5, Dose [Inhibitor]: 0, 500 PPM IN DIET FOR 10 WK BEGINNING 1 WK PRIOR TO CARCINOGEN DOSE (STUDY DURATION: 32 WK), Route [Inhibitor]: ORAL, Species: RAT, Strain/Sex: F344/MALE, Target Tissue: Type of Lesion: TONGUE: PAPILLOMA, Dose [Carcinogen]: 20 PPM IN DRINKING WATER FOR 8 WK, Promoter: NONE USED) is listed as 4/15 (27%), 1/16 (6%), 78%, not significant and the “tumour outcome (control, treated, inhibition, significance)” value (Carcinogen: 4-NITROQUINOLINE-1-OXIDE, 56-57-5, Dose [Inhibitor]: 0, 500 PPM IN DIET FOR 22 WK BEGINNING 1 WK POST CARCINOGEN TREATMENT (STUDY DURATION: 32 WK), Route [Inhibitor]: ORAL, Species: RAT, Strain/Sex: F344/MALE, Target Tissue: Type of Lesion: TONGUE: CARCINOMA, Dose [Carcinogen]: 20 PPM IN DRINKING WATER FOR 8 WK, Promoter: NONE USED) is listed as 9/15 (60%), 3/16 (19%), 68%, p<0.05. For the same molecule, the “tumour outcome (control, treated, inhibition, significance)” value (Carcinogen: 4-NITROQUINOLINE-1-OXIDE, 56-57-5, Dose [Inhibitor]: 0, 500 PPM IN DIET FOR 22 WK BEGINNING 1 WK POST CARCINOGEN TREATMENT (STUDY DURATION: 32 WK), Route [Inhibitor]: ORAL, Species: RAT, Strain/Sex: F344/MALE, Target Tissue: Type of Lesion: TONGUE: PAPILLOMA, Dose [Carcinogen]: 20 PPM IN DRINKING WATER FOR 8 WK, Promoter: NONE USED) was 4/15 (27%), 0/16 (0%), 100%, p<0.05.
For `CCCc1cc(OC)c2c(c1)OCO2`, the “tumour outcome (control, treated, inhibition, significance)” value (Carcinogen: BENZO[A]PYRENE, 50-32-8, Dose [Inhibitor]: 0, 10 MG SUSPENDED IN 0.3 ML COTTONSEED OIL 3/WK FOR 4 WK ON DAYS OTHER THAN THE CARCINOGEN TREATMENT, 3 ADDITIONAL DOSE, Route [Inhibitor]: GAVAGE, Species: MOUSE, Strain/Sex: STRAIN-A/FEMALE, Target Tissue: Type of Lesion: FORESTOMACH: TUMOR, Dose [Carcinogen]: 1 MG IN 0.3 ML COTTONSEED OIL 2/WK FOR 4 WK, Promoter: NONE USED) is listed as 12/17 (71%), 12/19 (63%), 11%, not significant and the “tumour outcome (control, treated, inhibition, significance)” value (Carcinogen: BENZO[A]PYRENE, 50-32-8, Dose [Inhibitor]: 0, 10 MG SUSPENDED IN 0.3 ML COTTONSEED OIL 3/WK FOR 4 WK ON DAYS OTHER THAN THE CARCINOGEN TREATMENT, 3 ADDITIONAL DOSE, Route [Inhibitor]: GAVAGE, Species: MOUSE, Strain/Sex: STRAIN-A/FEMALE, Target Tissue: Type of Lesion: LUNG: TUMOR, Dose [Carcinogen]: 1 MG IN 0.3 ML COTTONSEED OIL 2/WK FOR 4 WK, Promoter: NONE USED) is listed as 17/17 (100%), 19/19 (100%), 0%, not significant.
For `NCCCCN`, the “tumour outcome (control, treated, inhibition, significance)” value (Carcinogen: AZOXYMETHANE, 25843-45-2, Dose [Inhibitor]: 0, 300 UMOL/KG IN 0.9% SALINE 1/2 D FOR THE DURATION OF STUDY (STUDY DURATION: 40 WK), Route [Inhibitor]: INTRAPERITONEAL, Species: RAT, Strain/Sex: WISTAR/MALE, Target Tissue: Type of Lesion: COLON: TUMOR, Dose [Carcinogen]: 7.4 MG/KG IN 0.9% SALINE 1/WK FOR 10 WK, Promoter: NONE USED) is listed as 16/20 (80%), 6/18 (33%), 59%, p<0.01.
In the case of `CC1=C(/C=C/C(C)=C/C=C/C(C)=C/CO)C(C)(C)CCC1`, the “tumour outcome (control, treated, inhibition, significance)” value (Carcinogen: BENZO[A]PYRENE, 50-32-8, Dose [Inhibitor]: 0, 4000 IU/KG DIET BEGINNING 170 D PRIOR TO CARCINOGEN AND CONTINUING FOR STUDY DURATION (STUDY DURATION: 512 D), Route [Inhibitor]: ORAL, Species: HAMSTER, Strain/Sex: SYRIAN/MALE, Target Tissue: Type of Lesion: RESPIRATORY TRACT: TUMOR, Dose [Carcinogen]: 10 MG IN SALINE PLUS 8 MG FERRIC OXIDE 1/2 WK FOR 10 WK, Promoter: NONE USED) is given as 44%, 36%, 18%, not significant and the “tumour outcome (control, treated, inhibition, significance)” value (Carcinogen: BENZO[A]PYRENE, 50-32-8, Dose [Inhibitor]: 0, 100000 IU/KG DIET BEGINNING 170 D PRIOR TO CARCINOGEN AND CONTINUING FOR STUDY DURATION (STUDY DURATION: 512 D), Route [Inhibitor]: ORAL, Species: HAMSTER, Strain/Sex: SYRIAN/MALE, Target Tissue: Type of Lesion: RESPIRATORY TRACT: TUMOR, Dose [Carcinogen]: 10 MG IN SALINE PLUS 8 MG FERRIC OXIDE 1/2 WK FOR 10 WK, Promoter: NONE USED) is given as 44%, 35%, 20%, not significant.
In the case of `c1ccc2c(c1)-c1cccc3cccc-2c13`, the “tumour outcome (control, treated, inhibition, significance)” value (Carcinogen: BENZO[A]PYRENE, 50-32-8, Dose [Inhibitor]: 40 UG IN 0.1 ML ACETONE 3/WK ADMINISTERED SIMULTANEOUSLY WITH CARCINOGEN FOR DURATION OF STUDY (STUDY DURATION: 440 D), Route [Inhibitor]: DERMAL, Species: MOUSE, Strain/Sex: ICR/FEMALE, Target Tissue: Type of Lesion: SKIN: PAPILLOMA, Dose [Carcinogen]: 5 UG IN 0.1 ML ACETONE 3/WK FOR DURATION OF STUDY, Promoter: NONE USED) is listed as 16/50 (32%), 39/50 (78%), -144%, not calculated and the “tumour outcome (control, treated, inhibition, significance)” value (Carcinogen: BENZO[A]PYRENE, 50-32-8, Dose [Inhibitor]: 40 UG IN 0.1 ML ACETONE 3/WK ADMINISTERED SIMULTANEOUSLY WITH CARCINOGEN FOR DURATION OF STUDY (STUDY DURATION: 440 D), Route [Inhibitor]: DERMAL, Species: MOUSE, Strain/Sex: ICR/FEMALE, Target Tissue: Type of Lesion: SKIN: SQUAMOUS CARCINOMA, Dose [Carcinogen]: 5 UG IN 0.1 ML ACETONE 3/WK FOR DURATION OF STUDY, Promoter: NONE USED) is listed as 12/50 (24%), 37/50 (74%), -208%, not calculated.
